Data published in paper doi:10.1101/2021.04.08.439011v1 (biorxiv, 2021).

How the values were obtained:
Details in all cases: 0.1 µM; binder
[1] = target: MAST1 (Homo sapiens, UniProt Q9Y2H9)
[2] = target: RIPK4 (Homo sapiens, UniProt P57078)
[3] = target: ACVR1B (Homo sapiens, UniProt P36896)
[4] = target: TRKC (Homo sapiens, UniProt Q16288)
[5] = target: MAP3K2 (Homo sapiens, UniProt Q9Y2U5)
[6] = target: SRC (Homo sapiens, UniProt P12931)
[7] = target: MST3 (Homo sapiens, UniProt Q9Y6E0)
[8] = target: MEK4 (Homo sapiens, UniProt P45985)
[9] = target: CDC2L5 (Homo sapiens, UniProt Q14004)
[10] = target: CSK (Homo sapiens, UniProt P41240)
[11] = target: DMPK (Homo sapiens, UniProt Q09013)
[12] = target: FRK (Homo sapiens, UniProt P42685)
[13] = target: GSK3A (Homo sapiens, UniProt P49840)
[14] = target: TGFBR2 (Homo sapiens, UniProt P37173)
[15] = target: ZAP70 (Homo sapiens, UniProt P43403)
[16] = target: TESK1 (Homo sapiens, UniProt Q15569)
[17] = target: LRRK2(G2019S) (Homo sapiens, UniProt Q5S007, G2019S)
[18] = target: MRCKB (Homo sapiens, UniProt Q9Y5S2)
[19] = target: MUSK (Homo sapiens, UniProt O15146)
[20] = target: PLK3 (Homo sapiens, UniProt Q9H4B4)
[21] = target: NEK3 (Homo sapiens, UniProt P51956)
[22] = target: BTK (Homo sapiens, UniProt Q06187)
[23] = target: WNK1 (Homo sapiens, UniProt Q9H4A3)
[24] = target: MEK3 (Homo sapiens, UniProt P46734)
[25] = target: NLK (Homo sapiens, UniProt Q9UBE8)
[26] = target: SGK2 (Homo sapiens, UniProt Q9HBY8)
[27] = target: FLT3(R834Q) (Homo sapiens, UniProt P36888, R834Q)
[28] = target: TLK1 (Homo sapiens, UniProt Q9UKI8)
[29] = target: VEGFR2 (Homo sapiens, UniProt P35968)
[30] = target: IKK-beta (Homo sapiens, UniProt O14920)
[31] = target: PIK3CD (Homo sapiens, UniProt O00329)
[32] = target: MINK (Homo sapiens, UniProt Q8N4C8)

Chain of PIK3CD (O00329 whole entry): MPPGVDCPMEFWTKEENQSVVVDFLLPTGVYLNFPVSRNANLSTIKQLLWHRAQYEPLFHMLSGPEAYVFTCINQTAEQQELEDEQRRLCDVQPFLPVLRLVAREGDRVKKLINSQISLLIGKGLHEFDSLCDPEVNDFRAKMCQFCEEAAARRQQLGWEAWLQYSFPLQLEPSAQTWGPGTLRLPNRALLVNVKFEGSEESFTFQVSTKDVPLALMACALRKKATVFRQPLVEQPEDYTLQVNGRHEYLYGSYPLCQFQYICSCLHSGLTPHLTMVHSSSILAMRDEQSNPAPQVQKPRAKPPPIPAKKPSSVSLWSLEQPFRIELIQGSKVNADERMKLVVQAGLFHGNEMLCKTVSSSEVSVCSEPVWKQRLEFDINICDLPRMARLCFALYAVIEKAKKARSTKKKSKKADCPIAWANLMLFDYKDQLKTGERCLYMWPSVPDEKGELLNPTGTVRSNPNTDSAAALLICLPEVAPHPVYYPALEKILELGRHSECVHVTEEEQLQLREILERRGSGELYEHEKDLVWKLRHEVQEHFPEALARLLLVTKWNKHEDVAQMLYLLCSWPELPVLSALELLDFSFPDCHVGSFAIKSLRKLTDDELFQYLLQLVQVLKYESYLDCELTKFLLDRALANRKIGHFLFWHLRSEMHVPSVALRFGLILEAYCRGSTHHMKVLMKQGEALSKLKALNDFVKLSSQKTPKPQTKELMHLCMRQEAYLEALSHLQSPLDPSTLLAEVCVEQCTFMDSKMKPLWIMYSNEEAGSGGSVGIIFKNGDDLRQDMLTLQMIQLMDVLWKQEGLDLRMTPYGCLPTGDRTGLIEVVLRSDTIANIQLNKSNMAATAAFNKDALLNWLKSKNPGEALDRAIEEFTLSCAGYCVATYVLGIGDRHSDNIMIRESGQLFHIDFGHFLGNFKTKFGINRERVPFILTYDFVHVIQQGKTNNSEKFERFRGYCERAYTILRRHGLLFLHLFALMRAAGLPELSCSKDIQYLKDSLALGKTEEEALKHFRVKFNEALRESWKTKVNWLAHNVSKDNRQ
Chain of MAP3K2 (Q9Y2U5 whole entry): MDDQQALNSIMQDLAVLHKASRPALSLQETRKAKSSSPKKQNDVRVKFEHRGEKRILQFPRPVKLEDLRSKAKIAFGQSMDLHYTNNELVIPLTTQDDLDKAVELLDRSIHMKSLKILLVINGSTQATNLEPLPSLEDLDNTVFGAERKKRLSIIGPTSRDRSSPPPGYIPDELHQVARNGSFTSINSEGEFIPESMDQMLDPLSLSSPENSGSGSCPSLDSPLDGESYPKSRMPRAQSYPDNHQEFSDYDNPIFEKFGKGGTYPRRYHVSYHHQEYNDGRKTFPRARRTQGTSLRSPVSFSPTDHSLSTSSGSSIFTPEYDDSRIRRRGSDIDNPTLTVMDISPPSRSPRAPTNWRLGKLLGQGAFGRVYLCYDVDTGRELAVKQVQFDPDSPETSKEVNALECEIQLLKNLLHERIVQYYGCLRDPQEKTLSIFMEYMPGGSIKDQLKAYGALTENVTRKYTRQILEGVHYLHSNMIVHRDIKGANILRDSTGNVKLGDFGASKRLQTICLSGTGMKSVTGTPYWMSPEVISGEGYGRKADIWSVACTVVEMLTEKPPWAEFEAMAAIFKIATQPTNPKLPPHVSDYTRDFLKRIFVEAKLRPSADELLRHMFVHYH
Chain of TGFBR2 (P37173 whole entry): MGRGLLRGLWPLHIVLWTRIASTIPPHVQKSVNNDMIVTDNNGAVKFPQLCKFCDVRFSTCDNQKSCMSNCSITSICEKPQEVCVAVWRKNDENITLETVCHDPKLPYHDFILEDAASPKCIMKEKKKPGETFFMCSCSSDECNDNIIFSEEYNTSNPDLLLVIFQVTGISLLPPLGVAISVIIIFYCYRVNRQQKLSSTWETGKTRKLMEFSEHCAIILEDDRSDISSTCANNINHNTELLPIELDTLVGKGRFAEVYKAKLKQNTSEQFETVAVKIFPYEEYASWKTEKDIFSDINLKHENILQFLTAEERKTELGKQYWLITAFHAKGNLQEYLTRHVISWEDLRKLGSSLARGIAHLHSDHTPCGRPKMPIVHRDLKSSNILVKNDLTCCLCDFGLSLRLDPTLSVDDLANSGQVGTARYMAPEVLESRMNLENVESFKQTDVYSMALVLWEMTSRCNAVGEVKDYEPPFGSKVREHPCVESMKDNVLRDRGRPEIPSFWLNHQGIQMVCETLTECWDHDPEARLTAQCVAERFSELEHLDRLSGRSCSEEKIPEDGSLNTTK
Chain of NEK3 (P51956 whole entry): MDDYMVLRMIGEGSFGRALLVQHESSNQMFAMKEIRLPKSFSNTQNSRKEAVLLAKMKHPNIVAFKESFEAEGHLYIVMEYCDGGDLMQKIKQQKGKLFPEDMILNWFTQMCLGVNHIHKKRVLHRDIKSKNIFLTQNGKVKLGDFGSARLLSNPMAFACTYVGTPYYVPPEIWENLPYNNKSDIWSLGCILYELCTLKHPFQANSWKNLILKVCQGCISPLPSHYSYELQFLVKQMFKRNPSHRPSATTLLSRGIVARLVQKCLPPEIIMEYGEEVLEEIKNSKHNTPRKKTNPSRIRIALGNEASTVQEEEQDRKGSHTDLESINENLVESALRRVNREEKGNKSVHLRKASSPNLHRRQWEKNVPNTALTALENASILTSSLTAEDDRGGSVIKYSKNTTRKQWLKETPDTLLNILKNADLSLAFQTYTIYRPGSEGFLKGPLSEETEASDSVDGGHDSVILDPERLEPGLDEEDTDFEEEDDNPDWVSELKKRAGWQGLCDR
Chain of SRC (P12931 whole entry): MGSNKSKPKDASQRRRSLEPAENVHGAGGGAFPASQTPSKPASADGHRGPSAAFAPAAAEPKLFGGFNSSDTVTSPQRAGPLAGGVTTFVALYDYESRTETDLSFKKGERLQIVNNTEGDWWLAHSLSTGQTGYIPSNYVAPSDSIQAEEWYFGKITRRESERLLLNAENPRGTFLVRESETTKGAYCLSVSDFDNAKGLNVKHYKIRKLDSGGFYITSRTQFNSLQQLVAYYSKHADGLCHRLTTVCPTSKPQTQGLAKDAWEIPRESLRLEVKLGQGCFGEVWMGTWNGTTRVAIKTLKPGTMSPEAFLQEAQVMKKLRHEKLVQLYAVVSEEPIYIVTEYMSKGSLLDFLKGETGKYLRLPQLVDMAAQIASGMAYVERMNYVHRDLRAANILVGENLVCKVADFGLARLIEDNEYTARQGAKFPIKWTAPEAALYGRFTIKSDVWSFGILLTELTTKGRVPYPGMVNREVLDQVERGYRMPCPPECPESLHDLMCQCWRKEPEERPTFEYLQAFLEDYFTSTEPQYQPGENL
Chain of MEK3 (P46734 whole entry): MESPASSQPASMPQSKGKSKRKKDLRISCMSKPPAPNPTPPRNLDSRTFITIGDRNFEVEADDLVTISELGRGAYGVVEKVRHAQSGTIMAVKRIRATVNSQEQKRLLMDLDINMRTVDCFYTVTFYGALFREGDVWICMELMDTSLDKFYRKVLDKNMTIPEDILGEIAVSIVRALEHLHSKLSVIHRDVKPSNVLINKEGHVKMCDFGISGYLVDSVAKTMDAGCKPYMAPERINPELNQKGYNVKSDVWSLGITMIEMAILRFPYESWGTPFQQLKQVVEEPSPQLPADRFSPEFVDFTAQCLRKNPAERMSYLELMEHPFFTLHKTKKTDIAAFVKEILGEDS
Chain of SGK2 (Q9HBY8 whole entry): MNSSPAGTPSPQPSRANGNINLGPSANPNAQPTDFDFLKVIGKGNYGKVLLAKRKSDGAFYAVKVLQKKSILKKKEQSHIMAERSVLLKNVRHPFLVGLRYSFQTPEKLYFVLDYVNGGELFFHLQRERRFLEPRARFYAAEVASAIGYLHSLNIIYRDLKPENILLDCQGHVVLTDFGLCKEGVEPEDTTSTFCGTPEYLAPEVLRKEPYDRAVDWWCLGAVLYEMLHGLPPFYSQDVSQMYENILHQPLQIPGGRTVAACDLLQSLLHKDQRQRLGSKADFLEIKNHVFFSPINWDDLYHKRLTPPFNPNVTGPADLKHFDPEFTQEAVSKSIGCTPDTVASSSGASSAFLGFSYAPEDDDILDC
Chain of TLK1 (Q9UKI8 whole entry): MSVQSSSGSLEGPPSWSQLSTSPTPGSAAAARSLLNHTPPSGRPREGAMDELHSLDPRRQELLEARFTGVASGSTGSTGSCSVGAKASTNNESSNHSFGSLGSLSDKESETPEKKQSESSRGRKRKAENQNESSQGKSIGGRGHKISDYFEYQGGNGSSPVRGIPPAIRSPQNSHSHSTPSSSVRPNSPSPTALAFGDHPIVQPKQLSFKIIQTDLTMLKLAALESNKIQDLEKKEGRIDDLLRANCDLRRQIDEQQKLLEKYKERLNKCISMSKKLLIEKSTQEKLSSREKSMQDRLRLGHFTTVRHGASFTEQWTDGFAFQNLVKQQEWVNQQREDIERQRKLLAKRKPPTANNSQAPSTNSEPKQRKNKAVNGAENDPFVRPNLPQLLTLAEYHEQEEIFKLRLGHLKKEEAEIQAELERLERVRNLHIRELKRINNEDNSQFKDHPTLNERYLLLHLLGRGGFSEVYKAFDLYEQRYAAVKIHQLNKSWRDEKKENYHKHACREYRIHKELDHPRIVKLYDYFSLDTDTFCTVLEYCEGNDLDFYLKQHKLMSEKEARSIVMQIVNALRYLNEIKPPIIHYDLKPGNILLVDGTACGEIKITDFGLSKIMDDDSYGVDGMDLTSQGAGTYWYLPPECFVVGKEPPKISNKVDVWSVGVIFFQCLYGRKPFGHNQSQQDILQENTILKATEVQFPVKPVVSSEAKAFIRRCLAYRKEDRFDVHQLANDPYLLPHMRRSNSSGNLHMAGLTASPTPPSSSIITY

SMILES: CNc1ncc2cc(-c3ccc(-c4cccc(C)n4)cc3Cl)c(=O)n(C[C@H]3OC[C@H](N)CO3)c2n1 [compound 6, G-5555]
- Percent Control [1]: 47%
- Percent Control [2]: 97%
- Percent Control [3]: 100%
- Percent Control [4]: 84%
- Percent Control [5]: 97%
- Percent Control [6]: 100%
- Percent Control [7]: 15%
- Percent Control [8]: 49%
- Percent Control [9]: 79%
- Percent Control [10]: 100%
- Percent Control [11]: 100%
- Percent Control [12]: 100%
- Percent Control [13]: 100%
- Percent Control [14]: 100%
- Percent Control [15]: 100%
- Percent Control [16]: 83%
- Percent Control [17]: 100%
- Percent Control [18]: 73%
- Percent Control [19]: 100%
- Percent Control [20]: 86%
- Percent Control [21]: 93%
- Percent Control [22]: 87%
- Percent Control [23]: 100%
- Percent Control [24]: 75%
- Percent Control [25]: 73%
- Percent Control [26]: 100%
- Percent Control [27]: 96%
- Percent Control [28]: 100%
- Percent Control [29]: 98%
- Percent Control [30]: 93%
- Percent Control [31]: 53%
- Percent Control [32]: 77%
